# Experimental data taken from patent publication US20170226514A1, “PREVENTION OF TUMOUR METASTASIS BY INHIBITION OF NECROPTOSIS” (MAX-PLANCK-GESELLSCHAFT ZUR FÖRDERUNG DER WISSENSCHAFTEN …, priority 2014, published 2017).
# What was measured:
# [1] = test system: HUVEC; assay: Cell death assay discriminating apoptotic from necrotic cell death in HUVEC; type: cell-based, human; conditions: stimulated overnight; staining with Hoechst 33342 and EtDIII
# Description: Endothelial cells were grown to reach 80-90% confluency before addition of Ethidium homodimer […]) alone or together with substances or with tumour cells together with substances or inhibitors as indicated in the figures. After 6-18 h, cells were stained with Hoechst33342 and images were acquired. In order to identify the mode of cell death, all images were analyzed with FIJI. The total number of nuclei was determined through a low threshold over all Hoechst positive nuclei. On the same channel a second, separate threshold was used to determine the number of condensed nuclei. A third threshold on the second channel was used in order to determine the number of nuclei that were stained positive for […]. Knockdown in cells was achieved by double-transfection with siRNA using Lipofectamie […] Assays: HUVECs, HMVECs-L or L929 cells (1.5×10^4 at seeding in 100 μl) were cultured for 24 hours in 96-well plates. To induce cell death, cells were stimulated overnight with either rhTRAIL (100 ng/ml, Peprotech), Staurosporine ([…], Jena BioScience), H2O2 (1 mM, AppliChem) or […] (100 ng/ml, Peprotech) or cultured under hypoxic conditions (1% O2, Coy Laboratory Inc). […] Knockdown efficiencies were determined by Western Blotting using antibodies against RIPK3 (Abcam), Caspase-8 (ProSci) and a-tubulin (Sigma) upon lysis with Laemmli buffer or by quantitative PCR (Roche). […] Knockdown efficiencies were determined using quantitative PCR (Roche). Tumor cell number upon knockdown was determined by counting Hoechst33342-positive cells, and tumor cell death was determined by counting condensed and/or EthD-III-positive nuclei (see below). Cell migration was determined by a scratch assay Wang et al., 2007). […]
# [2] = biological target: T1, RIPK1 (Homo sapiens, UniProt Q13546); conditions: cited from earlier work
# T1 sequence (Q13546 1-671): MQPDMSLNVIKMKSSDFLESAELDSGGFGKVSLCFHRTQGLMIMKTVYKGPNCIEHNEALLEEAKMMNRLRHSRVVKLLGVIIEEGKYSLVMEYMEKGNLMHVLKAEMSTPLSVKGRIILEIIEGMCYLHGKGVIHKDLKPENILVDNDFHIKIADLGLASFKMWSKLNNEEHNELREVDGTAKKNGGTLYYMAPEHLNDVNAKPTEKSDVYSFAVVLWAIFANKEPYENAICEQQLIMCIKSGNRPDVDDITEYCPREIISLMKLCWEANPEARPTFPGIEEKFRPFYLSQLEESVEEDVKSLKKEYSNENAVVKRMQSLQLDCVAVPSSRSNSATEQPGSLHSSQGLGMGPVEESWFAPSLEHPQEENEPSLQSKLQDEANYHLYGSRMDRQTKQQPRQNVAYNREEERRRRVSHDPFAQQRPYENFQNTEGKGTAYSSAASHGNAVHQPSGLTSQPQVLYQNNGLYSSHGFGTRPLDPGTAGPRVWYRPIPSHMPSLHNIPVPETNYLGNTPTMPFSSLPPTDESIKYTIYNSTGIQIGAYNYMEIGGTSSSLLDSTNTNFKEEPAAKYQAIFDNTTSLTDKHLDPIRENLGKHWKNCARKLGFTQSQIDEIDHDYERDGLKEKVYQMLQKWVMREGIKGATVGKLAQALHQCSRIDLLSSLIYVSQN
# [3] = test system: necroptosis; conditions: where Nec1i can be modified to an active form; cited from earlier work
# [4] = test system: L929 cells; assay: Cell death assay in L929 cells (TNF-induced necroptosis, Hoechst 33342/EtDIII staining); type: cell-based, mouse; conditions: L929 cells treated with TNFα; staining with Hoechst 33342 and EtDIII
# Description: Cell Death Assays: HUVECs, HMVECs-L or L929 cells (1.5×10^4 at seeding in 100 μl) were cultured for 24 hours in 96-well plates. To induce cell death, cells were stimulated overnight with either rhTRAIL (100 ng/ml, Peprotech), Staurosporine ([…], Jena BioScience), H2O2 (1 mM, AppliChem) or […] (100 ng/ml, Peprotech) or cultured under hypoxic conditions (1% O2, Coy Laboratory Inc). […] Knockdown efficiencies were determined by Western Blotting using antibodies against RIPK3 (Abcam), Caspase-8 (ProSci) and a-tubulin (Sigma) upon lysis with Laemmli buffer or by quantitative PCR (Roche). […] Knockdown efficiencies were determined using quantitative PCR (Roche). Tumor cell number upon knockdown was determined by counting Hoechst33342-positive cells, and tumor cell death was determined by counting condensed and/or EthD-III-positive nuclei (see below). Cell migration was determined by a scratch assay Wang et al., 2007). […] To all images to be analyzed, a Gaussian blur with a radius of 3 pixels was applied to prevent repeatedly counting of fragmented parts of apoptotic nuclei. […] The total number of all endothelial nuclei was determined through a low threshold (TH1) and application of a watershed on the resulting binary image over all Hoechst positive nuclei (minus the nuclei from tumor cells). […]
# [5] = test system: HUVEC; assay: Tumour cell-induced endothelial cell necroptosis in vitro (co-culture, Hoechst 33342/EtDIII staining); type: cell-based, human; conditions: Nec-1 30 μM, co-culture overnight
# Description: Endothelial cells were grown to reach 80-90% confluency before addition of Ethidium homodimer […]) alone or together with substances or with tumour cells together with substances or inhibitors as indicated in the figures. After 6-18 h, cells were stained with Hoechst33342 and images were acquired. In order to identify the mode of cell death, all images were analyzed with FIJI. The total number of nuclei was determined through a low threshold over all Hoechst positive nuclei. On the same channel a second, separate threshold was used to determine the number of condensed nuclei. A third threshold on the second channel was used in order to determine the number of nuclei that were stained positive for […]. Knockdown in cells was achieved by double-transfection with siRNA using Lipofectamie […] […] Knockdown efficiencies were determined by Western Blotting using antibodies against RIPK3 (Abcam), Caspase-8 (ProSci) and a-tubulin (Sigma) upon lysis with Laemmli buffer or by quantitative PCR (Roche). […] Knockdown efficiencies were determined using quantitative PCR (Roche). Tumor cell number upon knockdown was determined by counting Hoechst33342-positive cells, and tumor cell death was determined by counting condensed and/or EthD-III-positive nuclei (see below). Cell migration was determined by a scratch assay Wang et al., 2007). […]
# [6] = test system: endothelial cells of the mouse lung; assay: Tumour cell-induced endothelial cell death in vivo (EthD-III-positive endothelial cells in lung, 6 h); conditions: B16 tumour cells i.v., Nec-1 1.65 μg/g i.v. per dose
# Description: (§1) In vivo: Tumour cells and substances or inhibitors were injected i.v. as depicted in the scheme in FIG. 5B into wildtype animals or animals of the respective genotype. To identify EtDIII-positive cells in vivo, animals were injected with EtDIII i.v. 10 min before sacrifice. Organs were isolated and processed for immunohistochemical analysis. For determining the number of metastasis, animals were sacrificed, lungs were isolated and macroscopically analyzed. All reagents used for these studies (incl. DR6-Fc) are commercially available (e.g. Lonza, CellSignaling, Sigma, R&D, etc.). […]
# (§2) TUNEL staining kit was from Roche. Sections were analyzed in XYZ views on a Leica SPS confocal microscope. The number of EthD-III-positive endothelial cells was determined by manual counting of EthD-III/ERG- or EthD-III/CD31-positive cells on a minimum of four random tissue sections per organ. For quantification of extravasating tumor cells, cryosections were analyzed by two criteria: tumor cells directly surrounded by CD31 staining (i.e. blood vessel) and with a noninvasive phenotype (i.e. round cell shape) were scored as intravascular, while cells outside blood vessels with an invasive phenotype (i.e. irregular cell shape with protrusions) were scored as extravascular. […]
# [7] = test system: B16 or LLC1 tumour cells; assay: Metastasis model: lung metastases after i.v. tumour cell injection (12 d); type: in vivo, mouse; conditions: Nec-1 1.65 μg/g i.v. per dose, lungs at 12 d
# Description: as §1, §2
molecule,measurement,setting,value
OO [H2O2],type of cell death induced in HUVEC,[1],necrotic phenotype
"O=C1NC(=S)NC1Cc1c[nH]c2ccccc12 (stereo not drawn) [Nec-1 inactive, 5-((1H-indol-3-yl)methyl)-2-thioxoimidazolidin-4-one]",effectiveness in vitro relative to Nec-1 (times less effective),[2],approximately 100 times
same,inhibition of necroptosis in cellular systems or in vivo,[3],can efficiently inhibit necroptosis
"CN1C(=O)C(Cc2c[nH]c3ccccc23)NC1=S (stereo not drawn) [Nec-1, 5-(1H-indo1-3-ylmethyl)-3-methyl-2-thioxo-4-imidazolidinone]","TNF-induced necrotic (necroptotic) phenotype of L929 cells, effect of addition of inhibitor",[4],could be blocked
same,tumour cell-induced necroptosis of endothelial cells in vitro (number of necroptotic HUVEC),[5],reduced
same,tumour cell-induced endothelial necroptosis in vivo (necroptotic ECs),[6],reduced
same,metastasis formation in vivo,[7],reduced
CN[C@@H]1C[C@H]2O[C@@](C)([C@@H]1OC)n1c3ccccc3c3c4c(c5c6ccccc6n2c5c31)C(=O)NC4 [Staurosporine],type of cell death induced in HUVEC,[1],induced apoptosis
"TRAIL: known stimulus for apoptosis, rhTRAIL from Peprotech (protein, UniProt P50591 1-281, looked up) Tumor necrosis factor ligand …: MAMMEVQGGPSLGQTCVLIVIFTVLLQSLCVAVTYVYFTNELKQMQDKYSKSGIACFLKEDDSYWDPNDEESMNSPCWQVKWQLRQLVRKMILRTSEETISTVQEKQQNISPLVRERGPQRVAAHITGTRGRSNTLSSPNSKNEKALGRKINSWESSRSGHSFLSNLHLRNGELVIHEKGFYYIYSQTYFRFQEEIKENTKNDKQMVQYIYKYTSYPDPILLMKSARNSCWSKDAEYGLYSIYQGGIFELKENDRIFVSVTNEHLIDMDHEASFFGAFLVG",type of cell death induced in HUVEC,[1],induced apoptosis
